What was measured:
[1] = Partition equilibrium in reactor pressurized with CO2, in presence and absence of alkalinity (NaHCO3, Na2CO3), back titration
Method: In the initial tests, 100 mL of heptol and 300 mL of water (with or without salinity) were used, with the addition of acidic species in the organic phase, in order to verify migration to the aqueous phase. As a rule, the system was kept under agitation at 500 rpm for 8 min, followed by rest for 10 min and, finally, collection of 50.0 mL aliquots of the aqueous phase for titrimetric analysis.
A 316 stainless steel alloy reactor (Parr®) (capacity for 600 mL and operational up to 20 MPa pressure) was used. For this purpose, a temperature range between 25° C. and 80° C. and pressure between 0.1 MPa and 1.0 MPa were used, and the reactor was pressurized with CO2. Thus, the results were compared (in terms of migration of the acidic species (%, mol) by means of back titrations) and the influence of pressure and temperature on the partition was estimated, as well as possible synergistic effects with the sources of alkalinity added to the aqueous phase.

[2] = Partition equilibrium under the influence of salinity (NaCl), glass reactor, neutralization titration; format: physicochemical; details: Salinity 0 (%, m · m^−1) NaCl
[3] = as above; format: physicochemical
Method: The variation in salinity (and its effect on acidic species) is due to the large variation in salinity found between the portions of bottom-hole water, middle-well water and surface water. Thus, systems with salinity (i.e., NaCl) between 3.5 and 30% (m·v^−1) were tested in a glass reactor, and neutralization titration was performed (in triplicate analysis), as previously described. Furthermore, the experimental results were generated in triplicate, using 99% NaCl (Sigma-Aldrich) with five acidic species.

[4] = Partition equilibrium with addition of calcium and strontium salts to the aqueous phase; format: physicochemical; details: for Effect of strontium ions on migration to the aqueous phase: strontium 400-2600 mg·L^−1
Method: The addition of salts to the reaction system is of fundamental importance when one intends to mimic field conditions. In this sense, in addition to continuing the study of the salinity effect (Example 4), the insertion of salts containing Ca^2+ and Sr^2+ ions, known to be present in seawater, was tested. To this end, the projects were based on the literature (Zheng, J. et al. Offshore produced water management: A review of current practice and challenges in harsh/Arctic environments. Mar. Pol. Bul. 2016, 104, 7-19) and four concentrations of each of the two ions were evaluated (400.0, 1200.0, 2600.0 and 9000.0 mg·L^−1), maintaining salinity at 3.5% (m·v^−1).
In short, the experimental results were generated in triplicate, using 99% NaCl to add salinity to the aqueous fraction and PA calcium chloride and PA strontium chloride to add calcium and strontium, respectively.
The addition of calcium and strontium to the reaction system, in the form of salts, aims at mimicking the real scenario in which both species are present (regardless of the salinity of the medium), especially in the well condition. This study aimed at understanding the effect (on the migration of acids to the organic phase) of this ion in the system also at concentrations higher than 10 mM. Finally, the experiments (in triplicate) with divalent strontium ions followed the same rationale.

[5] = Partition equilibrium in the presence of demulsifiers (Dissolvan 961, Dissolvan 974)
[6] = Control experiments: availability of the species in alkaline aqueous medium without using the reactor; format: physicochemical; details: acid solubilized directly in aqueous phase, no reactor
Method: Previously, the back titration procedure was internalized and optimized (Example 1), ensuring that the reproducibility of the measurements was adequate (standard deviation values below 10%, for example) and that the recoveries were close to what was expected based on the purity of the reagents (i.e., close to or above 90%). […] Control experiments were performed (measuring the availability of the species in an aqueous medium, without using the reactor) by solubilizing the organic acid directly in the aqueous phase and titrating a 10.0 mL aliquot; the same way, experiments were performed in the reactor based on the standardization of heptol and salinity already discussed (3.5%).

[7] = Partition equilibrium in the presence of surfactants (TBA, CTA, TMA); format: physicochemical
Text: The presence of chemical compounds usually added in the chain of unit operations of oil extraction and production, such as demulsifiers and surfactants, can affect the partition equilibrium of species in this water/oil system. In order to understand the extent of this effect, as well as discern the relevance of the chemical structure on this effect, the following items were chosen: • Dissolvan 961 (Clariant), composed of oil hydrocarbons (CAS 918-811-1) and ethanol (CAS 64-17-5); • Dissolvan 974 (Clariant), composed of EO-PO block polymer poly adducts and Bisphenol-A-diglycidyl ether (CAS 68123-18-2) and ethanol (CAS 64-17-5); • Tetrabutylammonium chloride (CAS 1112-67-0), 97% purity; • Cetyltrimethylammonium chloride (CAS 112-02-7), 25% in water; and • Trimethylammonium chloride (CAS 593-81-7), 98% purity.
For this study, the experiments (in triplicate) used between 100.0 and 1000.0 mg·L^−1 of each compound, comparing the results with control tests (absence of the component), all with constant salinity at 3.5% (m·v^−1). Finally, neutralization titration with a standardized NaOH titrant solution was used to determine the effect on the partition equilibrium for four acidic species (the same as in the other examples, except for dicyclohexylacetic acid).
Considering the study with surfactants, the (individual) addition of three species to the control system was evaluated (tetrabutylammonium chloride (TBA), tetramethylammonium chloride (TMA) and cetyltrimethylammonium chloride (CTA)). For this purpose, the surfactants have distinct chemical structures, namely the size of the side chain, and their eventual effect on the partition equilibrium of the acidic species was evaluated.

[8] = Salinity 3.5 (%, m · m^−1) NaCl
[9] = Salinity 18.0 (%, m · m^−1) NaCl
[10] = Salinity 30.0 (%, m · m^−1) NaCl
[11] = Calcium 400 mg · L^−1, salinity 3.5%
[12] = Calcium 1200 mg · L^−1, salinity 3.5%
[13] = Calcium 2600 mg · L^−1, salinity 3.5%
[14] = Strontium 400 mg · L^−1, salinity 3.5%
[15] = Strontium 1200 mg · L^−1, salinity 3.5%
[16] = Strontium 2600 mg · L^−1, salinity 3.5%

## O=C(O)CCCCc1ccccc1 [5-Phenylpentanoic Acid, 5-phenylpentanoic acid]
[1]; 25° C. and 1.0 MPa CO2, no alkalinity
  Migration: did not generate quantifiable results
[1]; Na2CO3 + NaHCO3, 25° C. and 0.1 MPa
  Migration: 100.0 % mol
[1]; Na2CO3 + NaHCO3, 25° C. and 1.0 MPa CO2
  Migration: 100.0 % mol
[1]; Na2CO3 + NaHCO3, 80° C. and 1.0 MPa CO2
  Migration: 100.0 % mol
[1]; NaHCO3, 25° C. and 0.1 MPa
  Migration: 100.0 % mol
[1]; NaHCO3, 25° C. and 1.0 MPa CO2
  Migration: 100.0 % mol
[1]; NaHCO3, 80° C. and 1.0 MPa CO2
  Migration: 100.0 % mol
[1]; NaHCO3 or Na2CO3 + NaHCO3, 0.1 or 1.0 MPa, 25 or 80 °C
  Migration trend in the presence of alkalinity individually and together with pressure/temperature: 100%
[1]; Reference (heptol + 3.5% NaCl), no alkalinity
  Migration: 10.3 % mol
[2]
  Migration: 24.4 %, mol
[3]; 30% (m·v^−1) NaCl versus tests without salinity
  Salting out effect (reduction in the number of moles contained in the aqueous phase): ~38%
[3]; [8]
  Migration: 13.2 %, mol
[3]; [9]
  Migration: 15.4 %, mol
[3]; [10]
  Migration: 15.4 %, mol
[4]; Absence of ions, salinity 3.5%
  Migration: 10.4 %, mol
[4]; [11]
  Migration: 5.5 %, mol
[4]; [12]
  Migration: 4.7 %, mol
[4]; [13]
  Migration: 3.4 %, mol
[4]; [14]
  Migration: 4.4 %, mol
[4]; [15]
  Migration: 5.3 %, mol
[4]; [16]
  Migration: 4.8 %, mol
[4]; calcium up to the maximum study concentrations
  Effect of calcium ion on migration to the aqueous phase: no variation in migration
[4]
  Effect of strontium ions on migration to the aqueous phase: decreased migration
[5]; 50 mg·L^−1 of D961
  Increase in migration to the aqueous phase with demulsifier: approximately 100%
[5]; Absence of ions (no demulsifier), salinity 3.5%
  Migration: 10.4 %, mol
[5]; D961 50 mg · L^−1
  Migration: 21.0 %, mol
[5]; D961 100 mg · L^−1
  Migration: 21.0 %, mol
[5]; D961 1000 mg · L^−1
  Migration: 23.0 %, mol
[5]; D974 50 mg · L^−1
  Migration: 18.0 %, mol
[5]; D974 100 mg · L^−1
  Migration: 16.0 %, mol
[5]; D974 1000 mg · L^−1
  Migration: 14.6 %, mol
[6]; Na2CO3 + NaHCO3 (3.48×10^−5 mol)
  Availability (reference value): 100.0 % mol
[6]; NaHCO3 (3.45×10^−5 mol)
  Availability (reference value): 100.0 % mol
[7]; Absence of surfactant, salinity 3.5%
  Migration: 10.4 %, mol
[7]; CTA100 (cetyltrimethylammonium chloride 100 mg · L^−1)
  Migration: 11.5 %, mol
[7]; CTA1000 (1000 mg · L^−1)
  Migration: 52.6 %, mol
[7]; TBA100 (tetrabutylammonium chloride 100 mg · L^−1)
  Migration: 22.0 %, mol
[7]; TBA1000 (1000 mg · L^−1)
  Migration: 21.6 %, mol
[7]; TMA100 (trimethylammonium chloride 100 mg · L^−1)
  Migration: 9.4 %, mol
[7]; TMA1000 (1000 mg · L^−1)
  Migration: 9.1 %, mol
[7]; surfactant CTA, 1000 mg·L^−1
  Increase in migration to the aqueous phase with CTA: ~500%
[7]; surfactant TBA, noticeable from 100 mg·L^−1
  Increase in the tendency to migrate to the aqueous phase with TBA: 100%
[7]; surfactant TMA
  Effect of TMA on partition equilibrium: no observable effect

## O=C(O)C(C1CCCCC1)C1CCCCC1 [Dicyclohexylacetic Acid, dicyclohexylacetic acid]
[2]
  Migration: 22.0 %, mol
[3]; 0-30% NaCl
  Migration to aqueous medium, approximate level over the salinity study: around 20%
[3]; 3.5-30% NaCl, 95% reliability
  Effect of the addition of salinity on migration: no significant effect
[3]; [8]
  Migration: 18.1 %, mol
[3]; [9]
  Migration: 19.9 %, mol
[3]; [10]
  Migration: 21.5 %, mol
[4]; Absence of ions, salinity 3.5%
  Migration: 22.1 %, mol
[4]; [11]
  Migration: 20.7 %, mol
[4]; [12]
  Migration: 19.6 %, mol
[4]; [13]
  Migration: 31.8 %, mol
[4]; [14]
  Migration: 15.8 %, mol
[4]; [15]
  Migration: 20.0 %, mol
[4]; [16]
  Migration: 21.5 %, mol
[4]; before addition of calcium
  Migration: 22 % (m·v^−1)
[4]
  Effect of strontium ions on migration to the aqueous phase: no effect

Reference: patent US20250231157A1, “METHOD FOR DETERMINING THE PARTITION OF NAPHTHENIC ACIDS FROM A PRODUCTION WATER MIMICKING SYSTEM AND MIMICKING SYSTEM” (PETRÓLEO BRASILEIRO S.A. – PETROBRAS, priority 2023, published 2025)
